Data from ChEMBL document CHEMBL1201862, “PubChem BioAssay data set” (2004).
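1) Cells in 96-well plates. 2) Compound, 48 h, 5 concentrations. 3) Linear interpolation between surrounding doses. 4) Unreached endpoint = highest concentration. Here, GI50 denotes the concentration required for 50% inhibition of growth.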 Active and inactive are the calls of the source. Rule as the data show it: active = GI50 up to about 1.1 µM and inactive = higher.

Legend:
Assay in all cases: NCI anticancer screen, dose series, 48 h
OVCAR-8 = test system: OVCAR-8
PC-3 = test system: PC-3
SK-MEL-28 = test system: SK-MEL-28
HL-60 = test system: HL-60
SF-268 = test system: SF-268
HCC 2998 = test system: HCC 2998
SR = test system: SR
RXF 393 = test system: RXF 393
Hs-578T = test system: Hs-578T
KM12 = test system: KM12
HCT-116 = test system: HCT-116
LOX IMVI = test system: LOX IMVI
SF-539 = test system: SF-539
CCRF-CEM = test system: CCRF-CEM
SK-MEL-5 = test system: SK-MEL-5
NCI/ADR-RES = test system: NCI/ADR-RES
RPMI-8226 = test system: RPMI-8226
Malme-3M = test system: Malme-3M
SN12C = test system: SN12C
T47D = test system: T47D
SK-OV-3 = test system: SK-OV-3
MCF7 = test system: MCF7
SNB-19 = test system: SNB-19
SNB-75 = test system: SNB-75
EKVX = test system: EKVX
CAKI-1 = test system: CAKI-1
HOP-92 = test system: HOP-92
MDA-N = test system: MDA-N
NCI-H522 = test system: NCI-H522
HT-29 = test system: HT-29
MDA-MB-231 = test system: MDA-MB-231
BT-549 = test system: BT-549
UACC-62 = test system: UACC-62
SK-MEL-2 = test system: SK-MEL-2
786-0 = test system: 786-0
HCT-15 = test system: HCT-15
UO-31 = test system: UO-31
SW-620 = test system: SW-620
COLO 205 = test system: COLO 205
OVCAR-5 = test system: OVCAR-5
ACHN = test system: ACHN
U-251 = test system: U-251
A549 = test system: A549
MOLT-4 = test system: MOLT-4
MDA-MB-435 = test system: MDA-MB-435
K562 = test system: K562
IGROV-1 = test system: IGROV-1
M14 = test system: M14
NCI-H226 = test system: NCI-H226
TK-10 = test system: TK-10
NCI-H460 = test system: NCI-H460
NCI-H23 = test system: NCI-H23
OVCAR-4 = test system: OVCAR-4
OVCAR-3 = test system: OVCAR-3
SF-295 = test system: SF-295
DU-145 = test system: DU-145
UACC-257 = test system: UACC-257
A498 = test system: A498

**Q.** `NP(=O)(OCC1=CC(=O)c2ccccc2C1=O)N(CCBr)CCBr` (stereo not drawn) was tested. Which GI50 (OVCAR-8) did it give?
**A.** 12.1 µM (inactive)

**Q.** And the GI50 (PC-3)?
**A.** 10.9 µM (inactive)

**Q.** And the GI50 (SK-MEL-28)?
**A.** 4.23 µM (inactive)

**Q.** What about the GI50 (HL-60) of the same compound?
**A.** 0.863 µM (active)

**Q.** And the GI50 (SF-268)?
**A.** 11.2 µM (inactive)

**Q.** What about the GI50 (HCC 2998) of the same compound?
**A.** 16 µM (inactive)

**Q.** What about the GI50 (SR) of the same compound?
**A.** 0.399 µM (active)

**Q.** What about the GI50 (RXF 393) of the same compound?
**A.** 7.4 µM (inactive)

**Q.** What about the GI50 (Hs-578T) of the same compound?
**A.** 31.5 µM (inactive)

**Q.** What about the GI50 (KM12) of the same compound?
**A.** 8.65 µM (inactive)

**Q.** What about the GI50 (HCT-116) of the same compound?
**A.** 9.55 µM (inactive)

**Q.** What about the GI50 (LOX IMVI) of the same compound?
**A.** 3.96 µM (inactive)

**Q.** What about the GI50 (SF-539) of the same compound?
**A.** 3.99 µM (inactive)

**Q.** And the GI50 (CCRF-CEM)?
**A.** 1.2 µM (inactive)

**Q.** What about the GI50 (SK-MEL-5) of the same compound?
**A.** 1.31 µM (inactive)

**Q.** And the GI50 (NCI/ADR-RES)?
**A.** 8.49 µM (inactive)

**Q.** What about the GI50 (RPMI-8226) of the same compound?
**A.** 11.6 µM (inactive)

**Q.** And the GI50 (Malme-3M)?
**A.** 0.979 µM (active)

**Q.** What about the GI50 (SN12C) of the same compound?
**A.** 10.6 µM (inactive)

**Q.** And the GI50 (T47D)?
**A.** 3.48 µM (inactive)

**Q.** What about the GI50 (SK-OV-3) of the same compound?
**A.** 14.3 µM (inactive)

**Q.** What about the GI50 (MCF7) of the same compound?
**A.** 2.07 µM (inactive)

**Q.** What about the GI50 (SNB-19) of the same compound?
**A.** 18.3 µM (inactive)

**Q.** What about the GI50 (SNB-75) of the same compound?
**A.** 7.26 µM (inactive)

**Q.** What about the GI50 (EKVX) of the same compound?
**A.** 15.3 µM (inactive)

**Q.** What about the GI50 (CAKI-1) of the same compound?
**A.** 0.843 µM (active)

**Q.** And the GI50 (HOP-92)?
**A.** 13.3 µM (inactive)

**Q.** What about the GI50 (MDA-N) of the same compound?
**A.** 1.65 µM (inactive)

**Q.** And the GI50 (NCI-H522)?
**A.** 2.31 µM (inactive)

**Q.** And the GI50 (HT-29)?
**A.** 11.1 µM (inactive)

**Q.** And the GI50 (MDA-MB-231)?
**A.** 11.4 µM (inactive)

**Q.** What about the GI50 (BT-549) of the same compound?
**A.** 2.09 µM (inactive)

**Q.** And the GI50 (UACC-62)?
**A.** 2.24 µM (inactive)

**Q.** What about the GI50 (SK-MEL-2) of the same compound?
**A.** 4.26 µM (inactive)

**Q.** And the GI50 (786-0)?
**A.** 5.82 µM (inactive)

**Q.** And the GI50 (HCT-15)?
**A.** 5.13 µM

**Q.** And the GI50 (UO-31)?
**A.** 11.2 µM (inactive)

**Q.** What about the GI50 (SW-620) of the same compound?
**A.** 2.32 µM (inactive)

**Q.** And the GI50 (COLO 205)?
**A.** 2.2 µM (inactive)

**Q.** What about the GI50 (OVCAR-5) of the same compound?
**A.** 22.3 µM (inactive)

**Q.** And the GI50 (ACHN)?
**A.** 1.44 µM (inactive)

**Q.** And the GI50 (U-251)?
**A.** 11.5 µM (inactive)

**Q.** And the GI50 (A549)?
**A.** 4.17 µM (inactive)

**Q.** What about the GI50 (MOLT-4) of the same compound?
**A.** 0.634 µM (active)

**Q.** What about the GI50 (MDA-MB-435) of the same compound?
**A.** 2.14 µM (inactive)

**Q.** And the GI50 (K562)?
**A.** 3.05 µM (inactive)

**Q.** And the GI50 (IGROV-1)?
**A.** 12.6 µM (inactive)

**Q.** What about the GI50 (M14) of the same compound?
**A.** 2.01 µM (inactive)

**Q.** What about the GI50 (NCI-H226) of the same compound?
**A.** 6.58 µM (inactive)

**Q.** And the GI50 (TK-10)?
**A.** 17.2 µM (inactive)

**Q.** And the GI50 (NCI-H460)?
**A.** 1.79 µM (inactive)

**Q.** What about the GI50 (NCI-H23) of the same compound?
**A.** 3.03 µM (inactive)

**Q.** And the GI50 (OVCAR-4)?
**A.** 16.4 µM (inactive)

**Q.** And the GI50 (OVCAR-3)?
**A.** 3.02 µM (inactive)

**Q.** And the GI50 (SF-295)?
**A.** 8.81 µM (inactive)

**Q.** And the GI50 (DU-145)?
**A.** 5.04 µM (inactive)

**Q.** And the GI50 (UACC-257)?
**A.** 1.87 µM (inactive)

**Q.** What about the GI50 (A498) of the same compound?
**A.** 20.8 µM (inactive)
